In the experiment the target is T1, caspase-1 (Homo sapiens, UniProt P29466).
T1 sequence (P29466 120-297 limits assumed): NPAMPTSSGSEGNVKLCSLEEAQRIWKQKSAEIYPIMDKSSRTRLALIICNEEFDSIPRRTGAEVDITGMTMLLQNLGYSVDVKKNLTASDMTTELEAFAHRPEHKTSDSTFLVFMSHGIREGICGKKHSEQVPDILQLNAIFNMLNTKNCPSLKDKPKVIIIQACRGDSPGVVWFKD
T1 sequence (P29466 317-404 limits assumed): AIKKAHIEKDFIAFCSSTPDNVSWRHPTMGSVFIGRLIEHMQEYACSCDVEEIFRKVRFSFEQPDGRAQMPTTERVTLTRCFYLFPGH
Kind of experiment: Reaction time of probes for caspase-1. Type of experiment: biochemical. The conditions noted are these: probe 5 μM, Cas-1 2 U/mL, assay buffer, 37 °C. The protocol: The spectral and chemical properties of all probes were then evaluated. Upon interaction with Cas-1, the specific peptide of the probes is cleaved, leading to the disruption of the FRET process in the system and the recovery of donor fluorescence (Fig. 2a). Prior to fluorescence detection, the UV-vis absorption spectra of the probes were acquired. […] Subsequently, the sensitivity of the probes towards Cas-1 was measured in HEPES buffer (50 mM HEPES, 50 mM NaCl, 0.1% chaps, 5% glycerol, 10 mM DTT, 10 mM EDTA). […] The response differences among the probes were more intuitively observed by analyzing the standard curves of fluorescence intensity at 585 nm against the concentration of Cas-1 (Fig. 2b). […] The reaction kinetics of the probes were also measured by monitoring the fluorescence intensity of FPy1, YPy1 and WPy1 (0.5–4 μM) following incubation with Cas-1 (2 U mL^−1) (Fig. S3a–f). […] The reaction time of the probes was also investigated by monitoring the fluorescence spectra of the probes (5 μM) incubated with Cas-1 (2 U mL^−1) at various time intervals (Fig. S4a–c). […] Finally, the selectivity of the probes was evaluated. […]
To investigate the sensitivity of the probes for caspase-1, varying concentration of caspase-1 (0, 0.2, 0.4, 0.6, 0.8, 1.0, 1.25, 1.5, 1.75, 2, 2.5, 3 U/mL) were incubated with FPy1 (5 μM), YPy1 (5 μM) and WPy1 (5 μM) respectively in caspase-1 assay buffer (50 mM HEPES, 50 mM NaCl, 0.1 % chaps, 5 % glycerol, 10 mM DTT, 10 mM EDTA) at 37 °C for 2 hours. Fluorescence spectra were recorded using Hitachi F-2700 spectrophotometer with an excitation at 510 nm (Photomultiplier voltage 700 V; Slit widths ex: 10 nm and em =5.0 nm). The fluorescence intensity of FPy1, YPy1 and WPy1 at 585 nm were plotted against the concentration of caspase-1, and a linear regression fitted from the corresponding concentration of caspase-1, and linear regression was applied to determine the slope k. The limit of detection (LoD) was calculated from 3σ/k, in which σ represents the standard deviation of 15 blank measurements. […]

The source of these data is PMC12598616, “Design and optimization of caspase-1-responsive fluorescent probes for pyroptosis imaging and anti-pyroptosis drug screening” (Chemical Science, 2025).

Regarding “–FLTDG– [FPy1, RhoB donor, hNR quencher]”, the “time to maximum fluorescence intensity at 585 nm (reaction time)” value was ≤ 40 min.
Turning to “–YVADG– [YPy1, caspase-1-responsive FRET probe with recognition peptide –YVADG–; RhoB donor, hNR quencher]”, the “time to maximum fluorescence intensity at 585 nm (reaction time)” value is reported as 60 min.
